The source of these data is patent US20250186393A1 (SANOFI, priority 2022, published 2025).

One series addresses T1, UGT1A4 (Homo sapiens, UniProt P22310).
T1 sequence (P22310 29-534): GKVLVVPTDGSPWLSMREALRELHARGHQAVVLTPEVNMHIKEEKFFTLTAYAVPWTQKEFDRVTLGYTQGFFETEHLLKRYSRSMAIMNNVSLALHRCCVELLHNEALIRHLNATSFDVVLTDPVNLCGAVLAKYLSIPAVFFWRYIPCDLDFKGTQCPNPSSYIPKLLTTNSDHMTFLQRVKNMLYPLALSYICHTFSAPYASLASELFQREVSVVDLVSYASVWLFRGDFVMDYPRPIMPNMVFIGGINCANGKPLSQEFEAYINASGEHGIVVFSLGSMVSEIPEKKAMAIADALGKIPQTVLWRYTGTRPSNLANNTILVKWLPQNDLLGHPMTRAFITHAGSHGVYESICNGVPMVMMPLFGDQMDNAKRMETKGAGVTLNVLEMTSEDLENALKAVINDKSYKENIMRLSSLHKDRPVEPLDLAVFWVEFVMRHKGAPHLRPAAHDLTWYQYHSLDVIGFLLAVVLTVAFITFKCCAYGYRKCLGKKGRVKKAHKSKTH
Particulars: cited from earlier work.

In series [1] the test system is estrogen receptor (ER)-positive, HER2-negative locally advanced or metastatic breast cancer. The series can be described thus: AMEERA-3 open label randomized Phase 2 trial, efficacy (PFS, OS, ORR, CBR, DCR per RECIST 1.1 by ICR). The format is in vivo, human.
Series [2] can be described thus: AMEERA-3 safety: treatment-emergent adverse events, safety population. It is filed as in vivo. The source says:
Secondary endpoints are defined as follows: • Overall survival: the time interval from the date of randomization to the date of documented death (due to any cause); • Objective response rate: the proportion of participants who have a confirmed complete response (CR) or partial response (PR), as best overall response (BOR) derived from overall response determined by ICR as per RECIST 1.1, from the date of randomization to the date of end of treatment; • Disease control rate: the proportion of participants who have a confirmed CR, PR, stable disease (SD), or Non-CR/Non-PD as BOR determined by ICR as per RECIST 1.1 from the date of randomization to the date of end of treatment; • Clinical benefit rate: the proportion of participants who have a confirmed CR, PR, SD, or Non-CR/Non-PD for at least 24 weeks determined by ICR as per RECIST 1.1, from the date of randomization to the date of end of treatment; • Progression-free survival as per ESR1 status: determined at Cycle 1 Day 1; • Overall safety profile: evaluated by adverse events/serious adverse events and laboratory abnormalities.
Concerning monitoring of adverse events, mention may be made of adverse events of special interest (AESI), who correspond to an adverse event (serious or nonserious) of scientific and medical concern specific to the Sponsor's product or program, for which ongoing monitoring and immediate notification by the Investigator to the Sponsor is required. Such events may require further investigation in order to characterize and understand them. For example: pregnancy of a participant or of a female partner of a participant entered in a study with IMP, symptomatic overdose with IMP, increase in ALT of a grade equal to or greater than 3, or photosensitivity.
The analysis populations were defined as follows: • Enrolled population: all patients who signed the informed consent form. • Intent-to-treat (ITT) population: all patients from the enrolled population and for whom there was a confirmation of successful allocation of a randomization number by Interactive Response Technology (IRT). Patients were analyzed according to the treatment arm assigned at randomization. • Safety population: all patients randomly assigned to study intervention and who took at least one dose of study intervention. Patients were analyzed according to the treatment arm they actually received.
The overview of adverse events (TEAEs: Treatment Emergent Adverse Events; SAEs: Serious Adverse Events; AESI: Adverse Events of Special Interest) is presented in Table 13.

The next series concerns the target T2, UGT1A1 (Homo sapiens, UniProt P22309).
T2 sequence (P22309 26-533): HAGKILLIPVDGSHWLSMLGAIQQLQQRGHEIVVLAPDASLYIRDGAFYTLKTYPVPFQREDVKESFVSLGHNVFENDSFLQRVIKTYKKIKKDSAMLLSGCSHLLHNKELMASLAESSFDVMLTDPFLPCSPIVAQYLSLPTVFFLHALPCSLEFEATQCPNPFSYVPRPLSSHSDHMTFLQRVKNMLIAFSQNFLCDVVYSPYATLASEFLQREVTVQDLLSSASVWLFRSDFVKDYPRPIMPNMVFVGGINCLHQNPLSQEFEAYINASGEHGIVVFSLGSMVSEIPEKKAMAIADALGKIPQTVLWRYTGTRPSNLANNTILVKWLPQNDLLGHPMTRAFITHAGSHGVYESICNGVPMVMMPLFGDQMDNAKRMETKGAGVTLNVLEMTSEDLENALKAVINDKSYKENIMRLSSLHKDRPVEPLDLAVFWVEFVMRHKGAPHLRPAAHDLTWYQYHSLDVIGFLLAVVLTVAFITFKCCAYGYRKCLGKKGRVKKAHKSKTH
Conditions: cited from earlier work.

[3] abbreviates: amcenestrant 400 mg QD, Kaplan-Meier.

For the compound `O=C(O)c1ccc2c(c1)CCCC(c1ccc(Cl)cc1Cl)=C2c1ccc(O[C@H]2CCN(CCCF)C2)cc1` [Amcenestrant, 6-(2,4-dichlorophenyl)-5-[4-[(3S)-1-(3-fluoropropyl)pyrrolidin-3-yl]oxyphenyl]-8,9-dihydro-7H-benzo[7]annulene-2-carboxylic acid], on UGT1A4, the “Substrate of UGT1A4” value was “substrate”. The “Reduction in risk for disease progression or death” value in series [1] (ESR1 mutation at baseline, amcenestrant compared to PCEM) is reported as 10.0%. Moreover, in series [1] (setting [3]), the “Progression-free survival rate at 12 months” value was determined as 20.4% and the “Progression-free survival rate at six months” value worked out at 35.5%. Further, the Bradycardia/QTc prolongation result in series [2] (amcenestrant treatment arm) is on record as “no bradycardia/QTc prolongation is observed”. For the same compound, in series [2] (mostly of Grade 1 or 2), the Gastrointestinal disorders was 44.8%; the “Skin and subcutaneous tissue disorders” value was 18.9%. In series [2] (safety population), the “Participants with any AESI, %” value is listed as “(0.7) %”; the “Participants with any TEAE leading to treatment discontinuation, %” value was “(3.5) %”; the “Participants with any TEAE, %” value is “(82.5) %”; the “Participants with any grade ≥3 TEAE, %” value is reported as “(21.7) %”. For the same compound, in series [2] (safety population), the “Participants with any treatment emergent SAE, %” value is given as “(16.1) %” and the “Participants with any treatment-related TEAE, %” value was “(44.8) %”. Moreover, the “Participants with any grade 5 TEAE, %” value in series [2] (safety population, during the treatment period) is reported as “(3.5) %”. For the same compound, the “Substrate of UGT1A1” value at UGT1A1 is “substrate”.
